From patent publication US8304557B2, “Fused heterocycle derivatives and use thereof” (Takeda Pharmaceutical Company Limited, priority 2007, dated 2012)

Key:
[1] = biological target: VEGFR2 intracellular domain protein (Homo sapiens, UniProt P35968); experiment: VEGF receptor 2 kinase inhibitory activity (AlphaScreen); details: read-out: The inhibitory rate of the compounds at 1 μM (VEGF receptor 2 kinase)
Experimental: Human vascular endothelial growth factor receptor 2 (hereinafter to be referred to as VEGFR2) gene was cloned by PCR using cDNA Libraries Human Placenta (Clontech) as a template.
The PCR reaction was conducted using a KOD-plus kit (TOYOBO). […] Furthermore, using BAC-TO-BAC Baculovirus Expression System (Invitrogen), virus stock BAC-VEGFR2 of recombinant baculovirus was prepared.
SF-21 cells were sown at 1×10^6 cells/mL to Sf-900II SEM medium (1 L, Invitrogen) containing 10% fetal bovine serum (trace), 50 mg/L Gentamicin (Invitrogen) and 0.1% Pluronic F-68 (Invitrogen), and shaking culture was performed using a 2 L volume Erlenmeyer flask at 27° C., 100 rpm. After culturing for 24 hrs, recombinant baculovirus BAC-VEGFR2 (13.4 mL) was added to the mixture, and the mixture was further cultured for 3 days. The culture medium was centrifuged at 2,000 rpm for 5 min to give virus-infected cells. The infected cells were washed with a phosphate buffered saline (Invitrogen), centrifuged under the same conditions, and the cells were preserved at −80° C. The cryopreserved cells were thawed in ice, suspended in buffer A (50 mM Tris buffer (30 mL, pH 7.4) containing 20% glycerol, 0.15 M NaCl) supplemented with Complete Protease Inhibitor (Boehringer), and ruptured 3 times with a Polytron homogenizer (Kinematica) at 20,000 rpm for 30 sec. The ruptured medium was clarified by centrifugation at 40,000 rpm for 30 min and filtered with a 0.45 μm filter. The filtrate was passed through a column packed with Anti-FLAG M2 Affinity Gel (4 mL, Sigma) at a flow rate of about 0.5 mL/min. The column was washed with buffer A, and eluted with buffer A containing 100 μg/mL of FLAG peptide. The eluate was concentrated with Vivaspin 20 (Vivascience) having a molecular weight cut off of 30K. The buffer of this concentrate was exchanged using NAP™ 25 column (Amersham Bioscience) equilibrated with buffer A. The fractions containing intracellular domain protein of VEGFR2 were collected, glycerol was added to the final concentration of 50% and cryopreserved at −80° C.
A test compound dissolved in DMSO was diluted with a buffer (50 mM Tris-HCl (pH 7.5), 5 mM MgCl2, 5 mM MnCl2, 2 mM dithiothreitol, 0.01% Tween-20). To this compound solution (5 μL) was added a buffer (10 μL) containing 50 ng/mL of VEGFR2 intracellular domain protein and 250 ng/mL of biotin labeled polypeptide biotinyl-poly-Glu:Tyr (4:1, CIS bio International). […] The reaction solution was allowed to stand at 25° C. for 16 hrs, and the wells were counted using a plate reader Fusion™ (PerkinElmer). The kinase inhibitory rate (%) of the test compound was calculated by the following formula: Inhibitory rate(%)=(1−(count of test compound−blank)÷(control−blank))×100

[2] = test system: Human umbilical vein vascular endothelial cells (HUVEC); experiment: Vascular endothelial cell growth inhibitory test (VEGF-stimulated HUVEC, WST-8); assay type: cell-based; details: 120 h, VEGF 120 ng/mL solution added, 5 days of culture, read-out: IC50 value, vascular endothelial cell growth inhibition
Experimental: To be specific, HUVEC was suspended in a vascular endothelial cell medium containing the aforementioned 3% bovine fetal serum and plated in a 96 well flat bottom plate by 50 μL (3000 cells) each well. After culture overnight, various concentrations of the test substance and 120 ng/mL of vascular endothelial growth factor (VEGF) were dissolved in a vascular endothelial cell medium containing 3% bovine fetal serum and added to each well by 50 μL. […] The absorbance at 450 nm was measured by a microtiter plate reader and the cell growth inhibitory activity was determined.

[3] = biological target: T1, PDGFRβ intracellular domain protein (Homo sapiens, UniProt P09619); experiment: PDGFRβ kinase inhibitory activity (AlphaScreen); assay type: biochemical; details: ATP 50 μM solution; 25° C., 60 min; read-out: IC50 value, PDGFRβ kinase inhibition
T1 construct: 125 ng/ml of PDGFRβ intracellular domain protein (UPSTATE); purchased UPSTATE
Experimental: (§1) A test compound dissolved in dimethyl sulfoxide (DMSO) was diluted with a buffer (50 mM Tris-HCl (pH 7.5), 5 mM MgCl2, 5 mM MnCl2, 2 mM dithiothreitol, 0.01% Tween-20). […] The reaction solution was allowed to stand at 25° C. for 16 hr, and the wells were counted using a plate reader Fusion™ (PerkinElmer). The kinase inhibitory rate (%) of the test compound was calculated by the following formula: Inhibitory rate(%)=(1−(count of test compound−blank)÷(control−blank))×100
(§2) The count of the solution reacted without addition of the compound was used as a “control”, and the count of the solution without the compound and ATP was used as a “blank”.

[4] = biological target: T2, Platelet-derived growth factor receptor α (PDGFRα) intracellular domain protein (Homo sapiens, UniProt P16234); experiment: PDGFRα kinase inhibitory activity (AlphaScreen); assay type: biochemical; details: ATP 25 μM solution; 25° C., 30 min; read-out: IC50 value, PDGFRα kinase inhibition
T2 construct: 125 ng/ml of PDGFα intracellular domain protein (UPSTATE); purchased UPSTATE
Experimental: as §1, with “hrs,” for “hr,”
as §2

BRAF (V600E) kinase = biological target: T3, BRAF (V600E) kinase (Homo sapiens, UniProt P15056, V600E); experiment: BRAF (V600E) kinase inhibitory activity ([γ-32P]ATP, GST-MEK1 (K96R) substrate); assay type: biochemical; details: 1 μM compound; BRAF (V600E) 30 ng, GST-MEK1 (K96R) 250 ng; room temperature, 20 min; read-out: The inhibitory rate of the compounds at 1 μM (%)
T3 construct: made in house; host or cells: SF-21 insect cells, recombinant baculovirus BAC-V600E
Experimental: Human BRAF gene was cloned by PCR using human Testis cDNA library (Clontech) as a template. The primer used for PCR was prepared from base sequence (Genbank Accession NM_004333) information of BRAF gene by adding a base sequence encoding flag peptide and a recognition sequence of the restriction enzyme to area encoding the BRAF kinase domain region, so that the protein contains an N-terminal Flag. The primer base sequence is shown below.
The PCR reaction was conducted using Pyrobest (Takara Shuzo Co., Ltd). The obtained PCR product was electrophoresed on agarose gel (1%), the DNA fragment amplified by PCR was recovered from the gel, and then digested with restriction enzymes EcoRI and SalI. The DNA treated with the restriction enzymes was electrophoresed on agarose gel (1%), and the obtained DNA fragment was recovered. The recovered DNA fragment was ligated to plasmid pFASTBAC1 (Invitrogen) digested with restriction enzymes EcoRI and SalI to give expression plasmid pFB-BRAF, and the base sequence of the insert fragment was confirmed. In addition, mutation was introduced into V600E using a Quick change Site Directed Mutagenesis kit (Stratagene). The nucleotide sequences of the primers used are shown in the following.
The obtained plasmid was sequenced to confirm the introduction of mutation into V600E. The plasmid DNA was digested with restriction enzymes EcoRI and SalI, DNA treated with the restriction enzymes was electrophoresed on agarose gel (1%), and the obtained DNA fragment was recovered. The recovered DNA fragment was ligated to plasmid pFASTBAC1 (Invitrogen) digested with restriction enzymes EcoRI and SalI to give expression plasmid pFB-V600E.
SF-21 cells were sown at 1×10^6 cells/mL to Sf-900II SFM medium (1 L, Invitrogen) containing 10% fetal bovine serum (Trace), 50 mg/L Gentamicin (Invitrogen) and 0.1% Pluronic F-68 (Invitrogen), and shaking culture was performed using a 2 L volume Erlenmeyer flask at 27° C., 100 rpm. After culturing for 24 hr, recombinant baculovirus BAC-V600E (13.4 mL) was added to the mixture, and the mixture was further cultured for 3 days. […]

T3 sequence (P15056 457-717 V600E limits assumed): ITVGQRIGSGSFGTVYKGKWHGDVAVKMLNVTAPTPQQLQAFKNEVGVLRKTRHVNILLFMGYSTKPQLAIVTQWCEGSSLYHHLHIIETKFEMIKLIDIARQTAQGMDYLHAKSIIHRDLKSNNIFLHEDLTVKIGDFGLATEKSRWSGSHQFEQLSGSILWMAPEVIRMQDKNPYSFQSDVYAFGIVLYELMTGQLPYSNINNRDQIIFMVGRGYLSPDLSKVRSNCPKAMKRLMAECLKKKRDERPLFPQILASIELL
T2 sequence (P16234 550-1089 limits assumed): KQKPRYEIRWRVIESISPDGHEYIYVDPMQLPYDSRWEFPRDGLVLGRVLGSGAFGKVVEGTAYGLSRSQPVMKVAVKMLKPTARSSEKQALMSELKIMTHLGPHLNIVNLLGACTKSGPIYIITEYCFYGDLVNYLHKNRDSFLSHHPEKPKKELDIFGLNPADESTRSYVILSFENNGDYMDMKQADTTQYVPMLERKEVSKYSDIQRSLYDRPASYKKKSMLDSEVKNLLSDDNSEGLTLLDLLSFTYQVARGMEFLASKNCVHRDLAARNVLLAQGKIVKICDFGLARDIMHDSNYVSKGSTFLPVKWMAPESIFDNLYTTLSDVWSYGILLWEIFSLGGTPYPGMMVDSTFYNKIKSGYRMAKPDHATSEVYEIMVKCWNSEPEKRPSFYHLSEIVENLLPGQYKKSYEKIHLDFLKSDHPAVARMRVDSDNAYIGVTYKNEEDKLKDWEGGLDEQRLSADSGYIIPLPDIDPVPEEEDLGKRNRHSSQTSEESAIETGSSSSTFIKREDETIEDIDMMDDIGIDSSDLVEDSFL
T1 sequence (P09619 554-1106 limits assumed): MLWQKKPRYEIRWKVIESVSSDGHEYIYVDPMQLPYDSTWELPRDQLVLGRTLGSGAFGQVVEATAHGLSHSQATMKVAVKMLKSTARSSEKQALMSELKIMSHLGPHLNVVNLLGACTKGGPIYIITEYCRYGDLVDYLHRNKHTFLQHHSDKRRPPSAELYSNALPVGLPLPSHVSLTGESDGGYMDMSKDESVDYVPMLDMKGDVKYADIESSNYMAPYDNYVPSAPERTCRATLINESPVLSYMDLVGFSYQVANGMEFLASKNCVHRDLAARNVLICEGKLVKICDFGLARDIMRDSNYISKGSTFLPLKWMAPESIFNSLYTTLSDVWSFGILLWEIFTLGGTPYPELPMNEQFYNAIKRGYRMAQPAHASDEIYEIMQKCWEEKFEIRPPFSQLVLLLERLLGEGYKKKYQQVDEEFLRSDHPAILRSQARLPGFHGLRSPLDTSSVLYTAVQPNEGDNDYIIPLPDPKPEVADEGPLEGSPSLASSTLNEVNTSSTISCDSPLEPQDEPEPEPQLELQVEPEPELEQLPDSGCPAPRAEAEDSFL
VEGFR2 intracellular domain protein, sequence (P35968 786-1356 limits assumed): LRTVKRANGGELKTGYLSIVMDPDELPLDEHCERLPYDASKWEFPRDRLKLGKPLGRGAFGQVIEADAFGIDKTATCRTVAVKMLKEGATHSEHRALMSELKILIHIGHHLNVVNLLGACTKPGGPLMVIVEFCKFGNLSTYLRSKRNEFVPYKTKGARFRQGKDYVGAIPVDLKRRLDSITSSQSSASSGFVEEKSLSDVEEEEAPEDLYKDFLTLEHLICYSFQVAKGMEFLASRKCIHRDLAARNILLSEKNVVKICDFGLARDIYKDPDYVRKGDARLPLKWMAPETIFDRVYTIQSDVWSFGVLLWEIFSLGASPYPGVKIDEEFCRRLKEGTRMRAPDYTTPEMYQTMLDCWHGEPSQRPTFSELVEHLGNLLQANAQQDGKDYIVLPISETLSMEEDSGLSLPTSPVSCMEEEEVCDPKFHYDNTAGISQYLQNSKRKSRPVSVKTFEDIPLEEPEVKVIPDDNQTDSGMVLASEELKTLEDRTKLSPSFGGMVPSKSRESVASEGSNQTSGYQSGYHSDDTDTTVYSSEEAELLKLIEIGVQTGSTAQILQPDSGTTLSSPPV

| Structure (SMILES) | inhibition at 1 µM [1] | IC50 [2] | IC50 [3] | IC50 [4] | inhibition at 1 µM (BRAF (V600E) kinase) |
| --- | --- | --- | --- | --- | --- |
| Cc1cccnc1C(=O)Nc1cccc(Oc2ccc3nc(NC(=O)C4CC4)cn3c2)c1 [Example 7-4, N-[3-({2-[(cyclopropylcarbonyl)amino]imidazo[1,2-a]pyridin-6-yl}oxy)phenyl]-3-methylpyridine-2-carboxamide] | ≥ 90% | ≤ 500 nM | ≤ 500 nM | ≤ 500 nM | – |
| O=C(Nc1cccc(Oc2ccc3nc(NC(=O)C4CC4)cn3c2)c1)c1cccc(C(F)(F)F)c1 [Example 226, N-[3-({2-[(cyclopropylcarbonyl)amino]imidazo[1,2-a]pyridin-6-yl}oxy)phenyl]-3-(trifluoromethyl)benzamide] | – | – | – | – | 100% |
| Cc1ccc(NC(=O)c2cccc(C(F)(F)F)c2)cc1Oc1ccc2nc(NC(=O)C3CC3)nn2c1 [Example 235, N-[3-({2-[(cyclopropylcarbonyl)amino][1,2,4]triazolo[1,5-a]pyridin-6-yl}oxy)-4-methylphenyl]-3-(trifluoromethyl)benzamide] | – | – | – | – | 100% |
| Cc1cccc(C(=O)Nc2cccc(Oc3ccc4nc(NC(=O)C5CC5)cn4c3)c2)n1 [Example 127-2, N-[3-({2-[(cyclopropylcarbonyl)amino]imidazo[1,2-a]pyridin-6-yl}oxy)phenyl]-6-methylpyridine-2-carboxamide] | ≥ 90% | ≤ 500 nM | ≤ 500 nM | ≤ 500 nM | – |
| CCNC(=O)Nc1cn2cc(Oc3ccc(F)c(NC(=O)c4cc(C)nn4C)c3)ccc2n1 [Example 10, N-{5-[(2-{[(ethylamino)carbonyl]amino}imidazo[1,2-a]pyridin-6-yl)oxy]-2-fluorophenyl}-1,3-dimethyl-1H-pyrazole-5-carboxamide] | ≥ 90% | ≤ 500 nM | ≤ 500 nM | ≤ 500 nM | – |
| Cc1cc(C(=O)Nc2cccc(Oc3ccc4nc(NC(=O)C5CC5)sc4n3)c2)n(C)n1 [Example 99, N-[3-({2-[(cyclopropylcarbonyl)amino][1,3]thiazolo[5,4-b]pyridin-5-yl}oxy)phenyl]-1,3-dimethyl-1H-pyrazole-5-carboxamide] | ≥ 90% | ≤ 500 nM | – | ≤ 500 nM | – |
| CCn1nc(C)cc1C(=O)Nc1cc(Oc2ccc3nc(NC(=O)C4CC4)nn3c2)ccc1F [Example 72, N-[5-({2-[(cyclopropylcarbonyl)amino][1,2,4]triazolo[1,5-a]pyridin-6-yl}oxy)-2-fluorophenyl]-1-ethyl-3-methyl-1H-pyrazole-5-carboxamide] | ≥ 90% | ≤ 500 nM | ≤ 500 nM | ≤ 500 nM | – |
| Cc1nc(C(=O)Nc2cccc(Oc3ccc4nc(NC(=O)C5CC5)nn4c3)c2)c(C(F)(F)F)o1 [Example 22, N-[3-({2-[(cyclopropylcarbonyl)amino][1,2,4]triazolo[1,5-a]pyridin-6-yl}oxy)phenyl]-2-methyl-5-(trifluoromethyl)-1,3-oxazole-4-carboxamide] | ≥ 90% | ≤ 500 nM | ≤ 500 nM | ≤ 500 nM | – |
| Cc1cc(C(=O)Nc2cc(Oc3ccc4nc(NC(=O)C5CC5)nn4c3)ccc2F)n(C)n1 [Example 23-2, N-[5-({2-[(cyclopropylcarbonyl)amino][1,2,4]triazolo[1,5-a]pyridin-6-yl}oxy)-2-fluorophenyl]-1,3-dimethyl-1H-pyrazole-5-carboxamide] | ≥ 90% | ≤ 500 nM | – | – | – |
| CC(C)(C#N)c1cccc(C(=O)Nc2cccc(Oc3ccc4nc(NC(=O)C5CC5)nn4c3)c2)c1 [Example 231, 3-(1-cyano-1-methylethyl)-N-[3-({2-[(cyclopropylcarbonyl)amino][1,2,4]triazolo[1,5-a]pyridin-6-yl}oxy)phenyl]benzamide] | – | – | – | – | 100% |
| Cc1cc(C(=O)Nc2cccc(Oc3ccc4nc(NC(=O)C5CC5)sc4c3)c2)n(C)n1 [Example 97-2, N-[3-({2-[(cyclopropylcarbonyl)amino]-1,3-benzothiazol-6-yl}oxy)phenyl]-1,3-dimethyl-1H-pyrazole-5-carboxamide] | ≥ 90% | ≤ 500 nM | – | ≤ 500 nM | – |
| Cc1cc(C(=O)Nc2cc(Oc3ccc4nc(NC(=O)C5CC5)nn4c3)ccc2C)n(C)n1 [Example 17-2, N-[5-({2-[(cyclopropylcarbonyl)amino][1,2,4]triazolo[1,5-a]pyridin-6-yl}oxy)-2-methylphenyl]-1,3-dimethyl-1H-pyrazole-5-carboxamide] | – | ≤ 500 nM | ≤ 500 nM | ≤ 500 nM | – |
| Cc1cc(C(=O)Nc2cccc(Oc3ccn4nc(NC(=O)C5CC5)nc4c3)c2)n(C)n1 [Example 96-4, N-[3-({2-[(cyclopropylcarbonyl)amino][1,2,4]triazolo[1,5-a]pyridine-7-yl}oxy)phenyl]-1,3-dimethyl-1H-pyrazole-5-carboxamide] | ≥ 90% | ≤ 500 nM | ≤ 500 nM | ≤ 500 nM | – |
| Cc1cc(C(=O)Nc2cc(Oc3ccc4nc(NC(=O)C5CC5)cn4c3)ccc2F)n(C)n1 [Example 9-2, N-[5-({2-[(cyclopropylcarbonyl)amino]imidazo[1,2-a]pyridin-6-yl}oxy)-2-fluorophenyl]-1,3-dimethyl-1H-pyrazole-5-carboxamide] | ≥ 90% | ≤ 500 nM | ≤ 500 nM | ≤ 500 nM | – |
